The results in this text go back to PMC8244865, “Recruitment of phospholipase Cγ1 to the non-structural membrane protein pK15 of Kaposi Sarcoma-associated herpesvirus promotes its Src-dependent phosphorylation” (PLoS Pathogens, 2021).

In experiment [1] the test system is PLCγ1 tSH2 domain (Src-mediated phosphorylation, Y^783). As to the kind of experiment: in vitro Src kinase assay, 35mer-enhanced PLCγ1 tSH2 phosphorylation. The experiment is classed as biochemical. To be noted: 1.25–5.0 μM 12mer, 2.5 μM 35mer, 0.085 μM Src, 45 min, 37°C; pY783 Western blot. On the procedure:
Fig 7 The pK15 CT domain enhances Src-mediated phosphorylation of the PLCγ1 tSH2 domain. (A) The purified PLCγ1 tSH2 domain (0.6 μM) was incubated with limiting amounts (0.085 μM) of recombinant purified Src kinase expressed in insect cells in the presence of increasing concentrations (1.25–5 μM) of phosphorylated peptides representing the last 12 (pK15 12mer) or 35 (pK15 35mer) amino acids of the pK15 cytoplasmic domain for 1 hour at 37°C. The reaction was stopped using SDS sample buffer and analysed by SDS-PAGE and Western blot using an antibody to the PLCγ1 pY^783 residue (top panel) or to the His tag on the recombinant tSH2 domain (bottom panel). […]
To test the impact of a pK15 CT fragment (pK15 CT^N2) or phosphorylated pK15 peptides representing the last 12 (DDLp[…]) or 35 ([…]pYEEVLFRN) amino acids of pK15 CT on the Src-mediated phosphorylation of the PLCγ1 tSH2 domain, GST-pK15CT^N2 was first phosphorylated with Src in vitro as described in the preceding paragraph. […] The reaction mix was then analysed by Western blot using an antibody to the phosphorylated Y^783 in the linker region of the PLCγ1 tSH2 domain and an antibody to the 5x His tag. […] Following a 45 min incubation at 37°C, the reaction mixture was analysed by Western blot as above.
In general terms: Immunoblotting shows a protein as a band on a membrane.

The test system is the same in experiment [2]. As to the kind of experiment: in vitro Src kinase assay, PLCγ1 tSH2 Y783 phosphorylation. The experiment is classed as biochemical. The note with it: 0.6 μM tSH2, 0.085 μM Src, 1.25–5 μM peptide or fixed 5.0 μM, 37°C, 1 hour or 45 min (method), pY783 Western blot. On the procedure:
Fig 7 The pK15 CT domain enhances Src-mediated phosphorylation of the PLCγ1 tSH2 domain. (A) The purified PLCγ1 tSH2 domain (0.6 μM) was incubated with limiting amounts (0.085 μM) of recombinant purified Src kinase expressed in insect cells in the presence of increasing concentrations (1.25–5 μM) of phosphorylated peptides representing the last 12 (pK15 12mer) or 35 (pK15 35mer) amino acids of the pK15 cytoplasmic domain for 1 hour at 37°C. The reaction was stopped using SDS sample buffer and analysed by SDS-PAGE and Western blot using an antibody to the PLCγ1 pY^783 residue (top panel) or to the His tag on the recombinant tSH2 domain (bottom panel). (B) Same as above, except that a fixed concentration (5.0 μM) of the 12mer peptide, the 35mer peptide or the pK15 truncation construct GST-pK15 CT^N2 [51] were used. The increased phosphorylation of the tSH2 domain in the presence of the 35mer peptide and pK15 CT^N2 can be seen. (C) Increasing concentrations of the phosphorylated pK15 12mer peptide were used to inhibit the increased src-mediated phosphorylation of tSH2 induced by 2.5 μM of the pK15 35mer peptide. Experimental conditions were as in panel A.
To test the impact of a pK15 CT fragment (pK15 CT^N2) or phosphorylated pK15 peptides representing the last 12 (DDLp[…]) or 35 ([…]pYEEVLFRN) amino acids of pK15 CT on the Src-mediated phosphorylation of the PLCγ1 tSH2 domain, GST-pK15CT^N2 was first phosphorylated with Src in vitro as described in the preceding paragraph. Phosphorylated GST-pK15 CT^N2 or the phosphorylated pK15 peptides, suspended in 50 mM Tris pH7.4, 300 mM NaCl, 1 mM DTT, were then added to the purified recombinant tSH2 domain (0.6 μM) together with a limiting amount of recombinant Src kinase (0.085 μM) in kinase buffer (20 mM Tris pH7.4, 20 mM NaCl, 1 mM DTT, 10 mM MgCl2, 0.2 mM ATP, 0.5 mM Sodium orthovanadate, 0.5 mM β-glycerophosphate) and the reaction allowed to proceed for 45 min. The reaction mix was then analysed by Western blot using an antibody to the phosphorylated Y^783 in the linker region of the PLCγ1 tSH2 domain and an antibody to the 5x His tag. To test the inhibitory effect of the phosphorylated 12mer pK15 peptide on the enhancement of PLCγ1 tSH2 domain phosphorylation induced by the pK15 35mer peptide, increasing concentrations (1.25–5.0 μM) of the 12mer peptide were added to a reaction mix containing the purified recombinant tSH2 domain (2.5 μM), the phosphorylated pK15 35mer (2.5 μM), and recombinant Src kinase (0.085 μM). Following a 45 min incubation at 37°C, the reaction mixture was analysed by Western blot as above.

The next experiment relates to PLCγ1 SA. As to the kind of experiment: GST-pulldown, PLCγ1 SA. The experiment is classed as binding. On the procedure: Fig 2 K15 phosphorylation results in a stronger binding to PLCγ1. (A) An expression plasmid for an S-tagged full length PLCγ1 or the empty vector (EV) were transfected in HEK-293T cells. After 30h cells were lysed and a GST-pulldown assay was performed with GST-fused pK15 CT (WT), the pK15 CT Y^481F mutant (Y^481F) or GST that had been bound to glutathione beads and previously phosphorylated by GST-6xHis Src (+) or left unphosphorylated (-). Bound proteins were analysed by WB using antibodies to the S tag on PLCγ1 and pTyr. (B) Untransfected HEK-293T cells were lysed and a GST-pulldown assay with pre-phosphorylated (+) or unphosphorylated (-) GST-fused pK15 CT WT/Y^481F or GST was performed and analysed by WB as in (A). (C) An expression plasmid for an S-tagged PLCγ1 SA or the empty vector were transfected in HEK-293T cells. […]
HEK293T cells were washed once with cold PBS 30 hours after transfection, lysed in IP buffer (50 mM Tris pH7.6, 60 mM NaCl, 6.25 mM EDTA, 1% (v/v) glycerol, 0.04% (v/v) NP-40) on ice for 30 minutes, sonicated shortly and cleared by centrifugation for 10 minutes at 20.000g, 4°C. […] Beads were then washed 5 times in 500 μl IP buffer (or for purified proteins IP buffer with 200 mM NaCl), suspended in 10 μl of 5x Laemmli sample buffer (60 mM Tris pH6.8, 24% (v/v) glycerol, 2% (v/v) SDS, 5% (v/v) β-mercaptoethanol, 0.01% Bromphenol Blue) and analysed by western blot.

For “DDLpYEEVLFPRN [pK15 12mer, phosphorylated peptide representing the last 12 amino acids of pK15 CT (DDLp…)]”, the “inhibition of 35mer-induced tSH2 phosphorylation” value in experiment [1] is “could inhibit the increased PLCγ1 tSH2 phosphorylation induced by the 35mer peptide”. The entries for the “effect on Src-mediated phosphorylation of PLCγ1 tSH2” value in experiment [2] (listed as 12mer pK15 peptide) and in experiment [2] (listed as 12mer peptide) were “moderate inhibition” and “cannot enhance the Src-mediated phosphorylation of PLCγ1”, respectively.

B1: pK15 CT^WT: pK15 cytoplasmic tail fused to GST at its N-terminal end, phosphorylated in vitro by Src (protein)
chain: SQLLNEVELQEVNRDPPNVFGYASILVSGAEESREPSPQPDQSGMSILRVDGGSAFRIDTAQAATQPTDDLYEEVLFPRN
modifications: tyrosine-phosphorylated in vitro by Src; sites not stated for this construct; left off: GST, N-terminal, kept
With B1, in the experiment with PLCγ1 SA (in vitro phosphorylated by Src, transfected SA in HEK 293, Western blot), the “interaction with PLCγ1 SA (GST-pulldown)” value is recorded as “bound more strongly to the SA region than the phosphorylated pK15 CT^Y481F mutant”. In the experiment on PLCγ1 SA (without prior in vitro phosphorylation by Src kinase), the “interaction with PLCγ1 SA, unphosphorylated (GST-pulldown)” value is “marginal binding to PLCγ1 SA”. Further, the “effect on Src-mediated phosphorylation of PLCγ1 tSH2” value in experiment [2] is reported as “enhanced the Src-mediated phosphorylation of the PLCγ1 tSH2 domain”.
